Laboratory results from patent publication US20230310436A1, “COMBINATION THERAPY FOR CANCERS WITH KRAS MUTATION” (COTHERA BIOSCIENCE, INC., priority 2019, published 2023).

tested on: KRAS^G12A-NSCLC H1573 cell line; assay: Ex vivo Edu proliferation test (MI, GI %), H1573; type: cell-based; settings: Table 1; 4 days; uM: osimertinib 0.5, afatinib 0.2, cobimetinib 0.4, trametinib 0.02, TAK-733 0.18, palbociclib 0.15, ribociclib 5
Procedure: (§1) For ex vivo drug testing, the cells were exposed to a combination of drugs or single drugs for 4 days or 7 days. Following exposure with drug, 1,000-5,000 cells were labeled with 5-ethynyl-2′-deoxyuridine (Edu) to assess the tumor cell proliferation rates. The labeling lasted 24 hours in the presence of drug exposure. In the control group, epithelial tumor cells received no drug exposure with media change (with 0.1% DMSO), but were similarly labeled with Edu. The labeled cells were fixed and blocked with 3% BSA and 0.5% Triton X-100 for 2 hours at room temperature, followed by staining with Hoechst 33342 and EpCAM antibody (1:4000) in PBS solution containing 0.5% Triton X-100 overnight at 4° C. Subsequently, the cells were rinsed with PBST then incubated with Alexa Fluor® 647 conjugated goat-antimouse secondary antibody for 30 minutes at room temperature.
(§2) The incorporated Edu was detected by Click-iT reaction where fixed cells were incubated with a reaction mixture containing 1× Click-iT Edu reaction buffer, CuSO4, and azide-conjugated Alexa Fluor dye in the dark. The stained cells were washed with PBS two times before image acquisition and analysis.
(§3) For image acquisition and analysis, the stained tumor cells were imaged by a high-content screening (HCS) platform (Thermo Scientific CellomicsArrayScanXTi HCS reader). The 10× objective was used to collect images. Twenty-five fields were imaged for each well for the analysis. From the images three fluorescent signals were obtained from the HCS reader. Blue fluorescent signals recorded nucleus signals stained with Hoechst 33342, green fluorescent signal detected the Edu incorporated in newly synthesized DNA, and red fluorescent signal detected the EpCAM positive epithelial cells population.
The MI (Maximum Inhibition Index) was calculated using the EpCAM and Edu positive readout (Tables 1-4). MI=Edu positive cells in control/Edu positive cells in treatment. MI4 indicates an MI value after 4 days of treatment and MI7 indicates an MI values after 7 days of treatment. […] GI % is calculated as GI %=(1−1/MI)*100%.

Compound | GI % (Growth Inhibition Rate), H1573 | MI 4 (Maximum Inhibition Index), H1573
CC(=O)Nc1cccc(-n2c(=O)n(C3CC3)c(=O)c3c(Nc4ccc(I)cc4F)n(C)c(=O)c(C)c32)c1 [Trametinib, trametinib] | 87.80% | 8.20
CN(C)C(=O)c1cc2cnc(Nc3ccc(N4CCNCC4)cn3)nc2n1C1CCCC1 [Ribociclib, ribociclib] | 99.00% | 100.43
O=C(c1ccc(F)c(F)c1Nc1ccc(I)cc1F)N1CC(O)([C@@H]2CCCCN2)C1 [Cobimetinib, cobimetinib] | 96.36% | 27.49

tested on: KRAS^G12A-NSCLC H2009 cell line; assay: Ex vivo Edu proliferation test (MI, GI %), H2009; type: cell-based; settings: Table 1; 4 days; uM: osimertinib 0.5, afatinib 0.2, cobimetinib 0.4, trametinib 0.02, TAK-733 0.18, palbociclib 0.15, ribociclib 5
Procedure: as §1, §2, §3
(§4) The MI (Maximum Inhibition Index) was calculated using the EpCAM and Edu positive readout (Tables 1-4). MI=Edu positive cells in control/Edu positive cells in treatment. MI4 indicates an MI value after 4 days of treatment and MI7 indicates an MI values after 7 days of treatment. The MI and growth inhibition rate (GI %) values for KRAS^G12A-NSCLC (H1573 and H2009), KRAS^G12C-NSCLC (H358, H23 and H2030), KRAS^G12V-NSCLC (H2291 and H2444) and KRAS^G12D-NSCLC (H1588 and SK-LU-1) cell lines are shown in Tables 1-4, respectively. GI % is calculated as GI %=(1−1/MI)*100%.

Compound | GI % (Growth Inhibition Rate), H2009 | MI 4 (Maximum Inhibition Index), H2009
CC(=O)Nc1cccc(-n2c(=O)n(C3CC3)c(=O)c3c(Nc4ccc(I)cc4F)n(C)c(=O)c(C)c32)c1 [Trametinib, trametinib] | 65.93% | 2.93
CN(C)C(=O)c1cc2cnc(Nc3ccc(N4CCNCC4)cn3)nc2n1C1CCCC1 [Ribociclib, ribociclib] | 10.09% | 1.11
O=C(c1ccc(F)c(F)c1Nc1ccc(I)cc1F)N1CC(O)([C@@H]2CCCCN2)C1 [Cobimetinib, cobimetinib] | 67.99% | 3.12

tested on: KRAS^G12C-NSCLC H358 cell line; assay: Ex vivo Edu proliferation test (MI, GI %), H358; type: cell-based; settings: Table 2a; 7 days; uM: osimertinib 0.5, afatinib 0.2, cobimetinib 0.4, trametinib 0.02, palbociclib 0.15, ribociclib 5
Procedure: as §1, §2, §3, §4

Compound | GI % (Growth Inhibition Rate), H358 | MI 7 (Maximum Inhibition Index), H358
CC(=O)Nc1cccc(-n2c(=O)n(C3CC3)c(=O)c3c(Nc4ccc(I)cc4F)n(C)c(=O)c(C)c32)c1 [Trametinib, trametinib] | 20.76% | 1.26
CN(C)C(=O)c1cc2cnc(Nc3ccc(N4CCNCC4)cn3)nc2n1C1CCCC1 [Ribociclib, ribociclib] | 95.43% | 21.19
O=C(c1ccc(F)c(F)c1Nc1ccc(I)cc1F)N1CC(O)([C@@H]2CCCCN2)C1 [Cobimetinib, cobimetinib] | 97.48% | 39.68

tested on: KRAS^G12C-NSCLC H23 cell line; assay: Ex vivo Edu proliferation test (MI, GI %), H23; type: cell-based; settings: Table 2a; 7 days; uM: osimertinib 0.5, afatinib 0.2, cobimetinib 0.4, trametinib 0.02, palbociclib 0.15, ribociclib 5
Procedure: as §1, §2, §3, §4

Compound | GI % (Growth Inhibition Rate), H23 | MI 7 (Maximum Inhibition Index), H23
CC(=O)Nc1cccc(-n2c(=O)n(C3CC3)c(=O)c3c(Nc4ccc(I)cc4F)n(C)c(=O)c(C)c32)c1 [Trametinib, trametinib] | 1.20% | 1.01
CN(C)C(=O)c1cc2cnc(Nc3ccc(N4CCNCC4)cn3)nc2n1C1CCCC1 [Ribociclib, ribociclib] | 74.57% | 3.96
O=C(c1ccc(F)c(F)c1Nc1ccc(I)cc1F)N1CC(O)([C@@H]2CCCCN2)C1 [Cobimetinib, cobimetinib] | 75.83% | 4.25

tested on: KRAS^G12C-NSCLC H2030 cell line; assay: Ex vivo Edu proliferation test (MI, GI %), H2030; type: cell-based; settings: Table 2a; 7 days; uM: osimertinib 0.5, afatinib 0.2, cobimetinib 0.4, trametinib 0.02, palbociclib 0.15, ribociclib 5
Procedure: as §1, §2, §3, §4

Compound | GI % (Growth Inhibition Rate), H2030 | MI 7 (Maximum Inhibition Index), H2030
CC(=O)Nc1cccc(-n2c(=O)n(C3CC3)c(=O)c3c(Nc4ccc(I)cc4F)n(C)c(=O)c(C)c32)c1 [Trametinib, trametinib] | 64.45% | 2.81
CN(C)C(=O)c1cc2cnc(Nc3ccc(N4CCNCC4)cn3)nc2n1C1CCCC1 [Ribociclib, ribociclib] | 84.67% | 6.57
O=C(c1ccc(F)c(F)c1Nc1ccc(I)cc1F)N1CC(O)([C@@H]2CCCCN2)C1 [Cobimetinib, cobimetinib] | 92.44% | 13.21

tested on: KRAS^G12V-NSCLC H2291 cell line; assay: Ex vivo Edu proliferation test (MI, GI %), H2291; type: cell-based; settings: Table 3; 7 days; uM: osimertinib 0.5, afatinib 0.2, trametinib 0.02, TAK-733 0.18, palbociclib 0.15, ribociclib 5
Procedure: as §1, §2, §3, §4

Compound | GI % (Growth Inhibition Rate), H2291 | MI 7 (Maximum Inhibition Index), H2291
CC(=O)Nc1cccc(-n2c(=O)n(C3CC3)c(=O)c3c(Nc4ccc(I)cc4F)n(C)c(=O)c(C)c32)c1 [Trametinib, trametinib] | 75.62% | 4.11
CN(C)C(=O)c1cc2cnc(Nc3ccc(N4CCNCC4)cn3)nc2n1C1CCCC1 [Ribociclib, ribociclib] | 98.65% | 72.98

tested on: KRAS^G12V-NSCLC H2444 cell line; assay: Ex vivo Edu proliferation test (MI, GI %), H2444; type: cell-based; settings: Table 3; 4 days; uM: osimertinib 0.5, afatinib 0.2, trametinib 0.02, TAK-733 0.18, palbociclib 0.15, ribociclib 5
Procedure: as §1, §2, §3, §4

Compound | GI % (Growth Inhibition Rate), H2444 | MI 4 (Maximum Inhibition Index), H2444
CC(=O)Nc1cccc(-n2c(=O)n(C3CC3)c(=O)c3c(Nc4ccc(I)cc4F)n(C)c(=O)c(C)c32)c1 [Trametinib, trametinib] | 87.22% | 7.82
CN(C)C(=O)c1cc2cnc(Nc3ccc(N4CCNCC4)cn3)nc2n1C1CCCC1 [Ribociclib, ribociclib] | 74.54% | 3.93

tested on: KRAS^G12D-NSCLC H1588 cell line; assay: Ex vivo Edu proliferation test (MI, GI %), H1588; type: cell-based; settings: Table 4; 4 days; uM: osimertinib 0.5, afatinib 0.2, cobimetinib 0.4, trametinib 0.02, TAK-733 0.18, palbociclib 0.15, ribociclib 5
Procedure: as §1, §2, §3, §4

Compound | GI % (Growth Inhibition Rate), H1588 | MI 4 (Maximum Inhibition Index), H1588
CC(=O)Nc1cccc(-n2c(=O)n(C3CC3)c(=O)c3c(Nc4ccc(I)cc4F)n(C)c(=O)c(C)c32)c1 [Trametinib, trametinib] | 45.63% | 1.84
CN(C)C(=O)c1cc2cnc(Nc3ccc(N4CCNCC4)cn3)nc2n1C1CCCC1 [Ribociclib, ribociclib] | 60.57% | 2.54
O=C(c1ccc(F)c(F)c1Nc1ccc(I)cc1F)N1CC(O)([C@@H]2CCCCN2)C1 [Cobimetinib, cobimetinib] | 48.38% | 1.94

tested on: KRAS^G12D-NSCLC SK-LU-1 cell line; assay: Ex vivo Edu proliferation test (MI, GI %), SK-LU-1; type: cell-based; settings: Table 4; 4 days; uM: osimertinib 0.5, afatinib 0.2, cobimetinib 0.4, trametinib 0.02, TAK-733 0.18, palbociclib 0.15, ribociclib 5
Procedure: as §1, §2, §3, §4

Compound | GI % (Growth Inhibition Rate), SK-LU-1 | MI 4 (Maximum Inhibition Index), SK-LU-1
CC(=O)Nc1cccc(-n2c(=O)n(C3CC3)c(=O)c3c(Nc4ccc(I)cc4F)n(C)c(=O)c(C)c32)c1 [Trametinib, trametinib] | 47.99% | 1.92
CN(C)C(=O)c1cc2cnc(Nc3ccc(N4CCNCC4)cn3)nc2n1C1CCCC1 [Ribociclib, ribociclib] | 91.58% | 11.88
O=C(c1ccc(F)c(F)c1Nc1ccc(I)cc1F)N1CC(O)([C@@H]2CCCCN2)C1 [Cobimetinib, cobimetinib] | 64.82% | 2.84

tested on: KRAS^G12C NSCLC CDX model H358; assay: not given; type: in vivo; settings: Table 11A; day 0; mg/kg: osimertinib 10, cobimetinib 5, TAK-733 10, palbociclib 20 daily p.o., cetuximab 1, cisplatin 4 per week i.p.; 21 days, then 7 days off

Compound | Mean Tumor Volume, study day 0
N.N.[Cl][Pt][Cl] [cisplatin] | 164.52 ± 22.82 mm^3

same assay, conditions: Table 11A; day 3; mg/kg: osimertinib 10, cobimetinib 5, TAK-733 10, palbociclib 20 daily p.o., cetuximab 1, cisplatin 4 per week i.p.; 21 days, then 7 days off

Compound | Mean Tumor Volume, study day 3
N.N.[Cl][Pt][Cl] [cisplatin] | 249.59 ± 33.58 mm^3

same assay, conditions: Table 11A; day 7; mg/kg: osimertinib 10, cobimetinib 5, TAK-733 10, palbociclib 20 daily p.o., cetuximab 1, cisplatin 4 per week i.p.; 21 days, then 7 days off

Compound | Mean Tumor Volume, study day 7
N.N.[Cl][Pt][Cl] [cisplatin] | 438.18 ± 93.81 mm^3

same assay, conditions: Table 11A; day 10; mg/kg: osimertinib 10, cobimetinib 5, TAK-733 10, palbociclib 20 daily p.o., cetuximab 1, cisplatin 4 per week i.p.; 21 days, then 7 days off

Compound | Mean Tumor Volume, study day 10
N.N.[Cl][Pt][Cl] [cisplatin] | 489.05 ± 102.01 mm^3

same assay, conditions: Table 11A; day 14; mg/kg: osimertinib 10, cobimetinib 5, TAK-733 10, palbociclib 20 daily p.o., cetuximab 1, cisplatin 4 per week i.p.; 21 days, then 7 days off

Compound | Mean Tumor Volume, study day 14
N.N.[Cl][Pt][Cl] [cisplatin] | 618.71 ± 145.67 mm^3

same assay, conditions: Table 11A; day 17; mg/kg: osimertinib 10, cobimetinib 5, TAK-733 10, palbociclib 20 daily p.o., cetuximab 1, cisplatin 4 per week i.p.; 21 days, then 7 days off

Compound | Mean Tumor Volume, study day 17
N.N.[Cl][Pt][Cl] [cisplatin] | 685.80 ± 180.07 mm^3

same assay, conditions: Table 11A; day 21; mg/kg: osimertinib 10, cobimetinib 5, TAK-733 10, palbociclib 20 daily p.o., cetuximab 1, cisplatin 4 per week i.p.; 21 days, then 7 days off

Compound | Mean Tumor Volume, study day 21
N.N.[Cl][Pt][Cl] [cisplatin] | 828.32 ± 220.11 mm^3

same assay, conditions: Table 11A; day 24; mg/kg: osimertinib 10, cobimetinib 5, TAK-733 10, palbociclib 20 daily p.o., cetuximab 1, cisplatin 4 per week i.p.; 21 days, then 7 days off

Compound | Mean Tumor Volume, study day 24
N.N.[Cl][Pt][Cl] [cisplatin] | 958.50 ± 207.93 mm^3

same assay, conditions: Table 11A; day 28; mg/kg: osimertinib 10, cobimetinib 5, TAK-733 10, palbociclib 20 daily p.o., cetuximab 1, cisplatin 4 per week i.p.; 21 days, then 7 days off

Compound | Mean Tumor Volume, study day 28
N.N.[Cl][Pt][Cl] [cisplatin] | 1079.33 ± 275.10 mm^3

same assay, conditions: Table 11C; day 0; doses as Table 11A (TAK-733 10 mg/kg)

Compound | Tumor volume (mm^3) day 0
N.N.[Cl][Pt][Cl] [cisplatin] | 164.52 ± 22.82 mm^3

same assay, conditions: Table 11C; day 28; doses as Table 11A (TAK-733 10 mg/kg)

Compound | Tumor volume (mm^3) day 28
N.N.[Cl][Pt][Cl] [cisplatin] | 1079.33 ± 275.10 mm^3

same assay, conditions: Table 11C; day 28 vs day 0; doses as Table 11A (TAK-733 10 mg/kg)

Compound | TGI %
N.N.[Cl][Pt][Cl] [cisplatin] | −10.2%

same assay, conditions: Tables 11A and 11C; cisplatin at 4 mg/kg

Compound | tumor growth inhibition, in words
N.N.[Cl][Pt][Cl] [cisplatin] | no effect on inhibiting tumor growth
